Test results as given in patent US20120225062A1 (priority 2011, published 2012).

System: KMS11 (human myeloma cell line)
Assay: Cell Proliferation Assay (CellTiter-Glo, 3 days)
Type: cell-based
Settings: KMS-11, 72 h, KMS11-luc cells
Procedure: KMS11 (human myeloma cell line), were cultured in IMDM supplemented with 10% FBS, sodium pyruvate and antibiotics. Cells were plated in the same medium at a density of 2000 cells per well into 96 well tissue culture plates, with outside wells vacant, on the day of assay.
Test compounds supplied in DMSO were diluted into DMSO at 500 times the desired final concentrations before dilution into culture media to 2 times final concentrations. Equal volumes of 2× compounds were added to the cells in 96 well plates and incubated at 37° C. for 3 days.
After 3 days plates were equilibrated to room temperature and equal volume of CellTiter-Glow Reagent (Promega) was added to the culture wells. The plates were agitated briefly and luminescent signal was measured with luminometer.
Using the procedures of Cell Proliferation Assay, the EC50 concentrations of compounds of the examples were determined in KMS11 cells as shown in Table 4.

| Compound | EC50 |
| --- | --- |
| C[C@H]1C[C@@H](c2ccncc2NC(=O)c2ccc(F)c(-c3c(F)cc(C4(O)CCC4)cc3F)n2)C[C@@H](N)[C@@H]1O [Example 60, N-(4-((1R,3R,4R,5S)-3-amino-4-hydroxy-5-methylcyclohexyl)pyridin-3-yl)-6-(2,6-difluoro-4-(1-hydroxycyclobutyl)phenyl)-5-fluoropicolinamide] | 15 nM |
| C[C@H]1C[C@@H](c2ccncc2NC(=O)c2ccc(F)c(-c3c(F)cc(C4(F)CCOCC4)cc3F)n2)C[C@@H](N)[C@@H]1O [Example 127, N-(4-((1R,3R,4R,5S)-3-amino-4-hydroxy-5-methylcyclohexyl)pyridin-3-yl)-6-(2,6-difluoro-4-(4-fluorotetrahydro-2H-pyran-4-yl)phenyl)-5-fluoropicolinamide] | 59 nM |
| Cc1cc(F)c(-c2nc(C(=O)Nc3cnccc3[C@@H]3C[C@H](C)C[C@H](N)C3)ccc2F)c(F)c1 [Example 8, N-(4-((1R,3S,5S)-3-amino-5-methylcyclohexyl)pyridin-3-yl)-6-(2,6-difluoro-4-methylphenyl)-5-fluoropicolinamide] | 46 nM |
| C[C@H]1C[C@@H](c2ccncc2NC(=O)c2ccc(F)c(-c3c(F)cc(C(C)(C)C(=O)O)cc3F)n2)C[C@@H](N)[C@@H]1O [Example 182, 2-(4-(6-(4-((1R,3R,4R,5S)-3-amino-4-hydroxy-5-methylcyclohexyl)pyridin-3-ylcarbamoyl)-3-fluoropyridin-2-yl)-3,5-difluorophenyl)-2-methylpropanoic acid] | > 10000 nM |
| N[C@H]1CCC[C@@H](c2ccncc2NC(=O)c2ccc(F)c(-c3c(F)cc(OC4CCOCC4)cc3F)n2)C1 [Example 150, N-(4-((1R,3S)-3-aminocyclohexyl)pyridin-3-yl)-6-(2,6-difluoro-4-(tetrahydro-2H-pyran-4-yloxy)phenyl)-5-fluoropicolinamide] | 324 nM |
| C[C@H]1C[C@@H](c2ccncc2NC(=O)c2ccc(F)c(-c3c(F)cc(C4(O)COC4)cc3F)n2)C[C@@H](N)[C@@H]1O [Example 54, N-(4-((1R,3R,4R,5S)-3-amino-4-hydroxy-5-methylcyclohexyl)pyridin-3-yl)-6-(2,6-difluoro-4-(3-hydroxyoxetan-3-yl)phenyl)-5-fluoropicolinamide] | 95 nM |
| C[C@H]1CN(c2ccncc2NC(=O)c2ccc(F)c(-c3c(F)cc(Cl)cc3F)n2)C[C@@H](N)[C@@H]1O [Example 217, N-(4-((3R,4R,5S)-3-amino-4-hydroxy-5-methylpiperidin-1-yl)pyridin-3-yl)-6-(4-chloro-2,6-difluorophenyl)-5-fluoropicolinamide] | 62 nM |
| C[C@@H]1C[C@H](N)C[C@H](c2ccncc2NC(=O)c2ccc(F)c(-c3c(F)cc(Cl)cc3F)n2)C1 [Example 208, N-(4-((1R,3S,5S)-3-amino-5-methylcyclohexyl)pyridin-3-yl)-6-(4-chloro-2,6-difluorophenyl)-5-fluoropicolinamide] | 363 nM |
| N[C@H]1CCC[C@@H](c2ccncc2NC(=O)c2ccc(F)c(-c3c(F)cc(N4CCOCC4)cc3F)n2)C1 [Example 166, N-(4-((1R,3S)-3-aminocyclohexyl)pyridin-3-yl)-6-(2,6-difluoro-4-morpholinophenyl)-5-fluoropicolinamide] | 325 nM |
| C[C@H]1C[C@@H](c2ccncc2NC(=O)c2ccc(F)c(-c3c(F)cc(C4(F)CCOCC4)cc3F)n2)C[C@@H](N)[C@H]1O [Example 129, N-(4-((1R,3R,4S,5S)-3-amino-4-hydroxy-5-methylcyclohexyl)pyridin-3-yl)-6-(2,6-difluoro-4-(4-fluorotetrahydro-2H-pyran-4-yl)phenyl)-5-fluoropicolinamide] | 78 nM |
| C[C@@H]1C[C@H](N)C[C@H](c2ccncc2NC(=O)c2ccc(F)c(-c3c(F)cc(C(F)F)cc3F)n2)C1 [Example 57, N-(4-((1R,3S,5S)-3-amino-5-methylcyclohexyl)pyridin-3-yl)-6-(4-(difluoromethyl)-2,6-difluorophenyl)-5-fluoropicolinamide] | 42 nM |
| CCC(=O)c1cc(F)c(-c2nc(C(=O)Nc3cnccc3[C@H]3C[C@@H](N)[C@H](O)[C@@H](C)C3)ccc2F)c(F)c1 [Example 157, N-(4-((1R,3R,4R,5S)-3-amino-4-hydroxy-5-methylcyclohexyl)pyridin-3-yl)-6-(2,6-difluoro-4-propionylphenyl)-5-fluoropicolinamide] | 68 nM |
| CC(C)c1cc(F)c(-c2nc(C(=O)Nc3cnccc3[C@H]3C[C@@H](N)[C@H](O)[C@@H](C)C3)ccc2F)c(F)c1 [Example 199, N-(4-((1R,3R,4R,5S)-3-amino-4-hydroxy-5-methylcyclohexyl)pyridin-3-yl)-6-(2,6-difluoro-4-isopropylphenyl)-5-fluoropicolinamide] | 204 nM |
| COc1cc(F)c(-c2nc(C(=O)Nc3cnccc3[C@H]3C[C@@H](N)[C@H](O)[C@@H](C)C3)ccc2F)c(F)c1 [Example 5, N-(4-((1R,3R,4R,5S)-3-amino-4-hydroxy-5-methylcyclohexyl)pyridin-3-yl)-6-(2,6-difluoro-4-methoxyphenyl)-5-fluoropicolinamide] | 62 nM |
| C[C@H]1C[C@@H](c2ccncc2NC(=O)c2ccc(F)c(-c3c(F)cc([S@+](C)[O-])cc3F)n2)C[C@@H](N)[C@@H]1O [Example 27, N-(4-((1R,3R,4R,5S)-3-amino-4-hydroxy-5-methylcyclohexyl)pyridin-3-yl)-6-(2,6-difluoro-4-((S)-methylsulfinyl)phenyl)-5-fluoropicolinamide] | 90 nM |
| N[C@H]1CCC[C@@H](c2ccncc2NC(=O)c2ccc(F)c(-c3c(F)cc(C4(F)CCOCC4)cc3F)n2)C1 [Example 153, N-(4-((1R,3S)-3-aminocyclohexyl)pyridin-3-yl)-6-(2,6-difluoro-4-(4-fluorotetrahydro-2H-pyran-4-yl)phenyl)-5-fluoropicolinamide] | 366 nM |
| C[C@@H]1C[C@H](N)C[C@H](c2ccncc2NC(=O)c2ccc(F)c(-c3c(F)cc(C(C)(C)O)cc3F)n2)C1 [Example 236, N-(4-((1R,3S,5S)-3-amino-5-methylcyclohexyl)pyridin-3-yl)-6-(2,6-difluoro-4-(2-hydroxypropan-2-yl)phenyl)-5-fluoropicolinamide] | 13 nM |
| C[C@@H]1C[C@H](N)C[C@H](c2ccncc2NC(=O)c2ccc(F)c(-c3c(F)cc([C@H](C)O)cc3F)n2)C1 [Example 73, N-(4-((1R,3S,5S)-3-amino-5-methylcyclohexyl)pyridin-3-yl)-6-(2,6-difluoro-4-((S)-1-hydroxyethyl)phenyl)-5-fluoropicolinamide] | 21 nM |

Further compounds by falling EC50, results first:

| EC50 | Compound |
| --- | --- |
| 1440 nM | C[C@H]1C[C@@H](c2ccncc2NC(=O)c2ccc(F)c(-c3c(F)cc(S(C)(=O)=O)cc3F)n2)C[C@@H](N)[C@@H]1O [Example 14, N-(4-((1R,3R,4R,5S)-3-amino-4-hydroxy-5-methylcyclohexyl)pyridin-3-yl)-6-(2,6-difluoro-4-(methylsulfonyl)phenyl)-5-fluoropicolinamide] |
| 409 nM | CC(C)(C#N)c1cc(F)c(-c2nc(C(=O)Nc3cnccc3[C@@H]3CCC[C@H](N)C3)ccc2F)c(F)c1 [Example 167, N-(4-((1R,3S)-3-aminocyclohexyl)pyridin-3-yl)-6-(4-(2-cyanopropan-2-yl)-2,6-difluorophenyl)-5-fluoropicolinamide] |
| 383 nM | C[C@@H]1C[C@H](N)C[C@H](c2ccncc2NC(=O)c2ccc(F)c(-c3c(F)cc(S(C)(=O)=O)cc3F)n2)C1 [Example 1, N-(4-((1R,3S,5S)-3-amino-5-methylcyclohexyl)pyridin-3-yl)-6-(2,6-difluoro-4-(methylsulfonyl)phenyl)-5-fluoropicolinamide] |
| 264 nM | CC(C)OCc1cc(F)c(-c2nc(C(=O)Nc3cnccc3[C@@H]3CCC[C@H](N)C3)ccc2F)c(F)c1 [Example 155, N-(4-((1R,3S)-3-aminocyclohexyl)pyridin-3-yl)-6-(2,6-difluoro-4-(isopropoxymethyl)phenyl)-5-fluoropicolinamide] |
| 169 nM | CSc1cc(F)c(-c2nc(C(=O)Nc3cnccc3[C@@H]3C[C@H](C)C[C@H](N)C3)ccc2F)c(F)c1 [Example 223, N-(4-((1R,3S,5S)-3-amino-5-methylcyclohexyl)pyridin-3-yl)-6-(2,6-difluoro-4-(methylthio)phenyl)-5-fluoropicolinamide] |
| 70 nM | Cc1cc(F)c(-c2nc(C(=O)Nc3cnccc3[C@H]3C[C@@H](N)[C@H](O)[C@@H](C)C3)ccc2F)c(F)c1 [Example 4, N-(4-((1R,3R,4R,5S)-3-amino-4-hydroxy-5-methylcyclohexyl)pyridin-3-yl)-6-(2,6-difluoro-4-methylphenyl)-5-fluoropicolinamide] |
| 55 nM | CCc1cc(F)c(-c2nc(C(=O)Nc3cnccc3[C@H]3C[C@@H](N)[C@H](O)[C@@H](C)C3)ccc2F)c(F)c1 [Example 39, N-(4-((1R,3R,4R,5S)-3-amino-4-hydroxy-5-methylcyclohexyl)pyridin-3-yl)-6-(4-ethyl-2,6-difluorophenyl)-5-fluoropicolinamide] |
| 42 nM | C[C@H]1C[C@@H](c2ccncc2NC(=O)c2ccc(F)c(-c3c(F)cc(C(F)F)cc3F)n2)C[C@@H](N)[C@@H]1O [Example 58, N-(4-((1R,3R,4R,5S)-3-amino-4-hydroxy-5-methylcyclohexyl)pyridin-3-yl)-6-(4-(difluoromethyl)-2,6-difluorophenyl)-5-fluoropicolinamide] |
| 34 nM | C[C@H]1C[C@@H](c2ccncc2NC(=O)c2ccc(F)c(-c3c(F)cc(C4(O)CCCC4)cc3F)n2)C[C@@H](N)[C@@H]1O [Example 161, N-(4-((1R,3R,4R,5S)-3-amino-4-hydroxy-5-methylcyclohexyl)pyridin-3-yl)-6-(2,6-difluoro-4-(1-hydroxycyclopentyl)phenyl)-5-fluoropicolinamide] |
